Laboratory results reported in patent EP0156233A2, “Use of leukotriene antagonists for producing cytoprotective pharmaceutical compositions and process for producing cytoprotective pharmaceutical compositions” (Merck & Co., Inc., priority 1984, dated 1985).

Tested on: S.D. rats
Assay: Indomethacin-Induced Ulcer Assay (assay B)
Assay type: in vivo
Conditions: 15 min prior to indomethacin 10 mg/kg p.o., 24 hr. fasted rats, sacrificed four hours later
Experimental: B. Indomethacin-Induced Ulcer Assay
Indomethacin, 10 mg/kg p.o., is used to induce ulcers in 24 hr. fasted S.D. rats. Fifteen minutes prior to indomethacin administration, groups of rats each receive either an aqueous vehicle (5% wt. methylcellulose) or the test compound at various doses perorally. Four hours later the animals are sacrificed and stomach mucosae are examined for resulting ulcers.
Following the procedure of assay B (Indomethacin-Induced Ulcer Assay), various compounds were tested for ulcer inhibition.

Row | SMILES | % Inhib. (Dose 30 mg/kg p.o.) | % Inhib. (Dose 0.1 mg/kg p.o.) | % Inhib. (Dose 1 mg/kg p.o.) | % Inhib. (Dose 10 mg/kg p.o.) | also measured
1 | CCCc1c(OCCCSc2ccc(C(=O)CCC#N)cc2)ccc(C(C)=O)c1O [Example 40, 4-(3-(4-acetyl-3-hydroxy-2-propyl-phenoxy)propylthio)-gamma-oxobenzenebutyronitrile] | 89.4% | – | – | – | –
2 | CCCc1c(OCCCS(=O)(=O)c2ccc([C@H](O)[C@@H](C)CC(=O)O)cc2)ccc(C(C)=O)c1O (relative stereo) [Example 77, (Beta S^*, gamma R^*) sodium 4-(3-(4-acetyl-3-hydroxy-2-propylphenoxy)propylsulfonyl)-gamma-hydroxy-beta-methylenzenebutanoate] | 46.5% | – | – | – | –
3 | CCCc1c(OCCCSc2ccc([C@H](O)[C@@H](C)CC(=O)O)cc2)ccc(C(C)=O)c1O (relative stereo) [Example 78, (Beta S^*, gamma R^*)-sodium 4-(3-(4-acetyl-3-hydroxy-2-propylphenoxy)propylthio)-gamma-hydroxy-beta-methyl-benzenebutanoate] | – | 27.1% | 70.1% | 76.1% | % Inhib. (Dose 0.03 mg/kg p.o.): 14.1%; % Inhib. (Dose 0.3 mg/kg p.o.): 50.1%; % Inhib. (Dose 3 mg/kg p.o.): 74.1%
4 | CCCc1c(OCCCOc2ccc([C@H](O)[C@@H](C)CC(=O)[O-])cc2)ccc(C(C)=O)c1O.[Na+] (relative stereo) [Example 103, Sodium (beta S^*, gamma R^*) 4-(3-(4-acetyl-3-hydroxy-2-propylphenoxy)propyloxy)-gamma-hydroxy-beta-methylbenzenebutanoate] | – | 61.1% | 76.1% | 74.1% | –
5 | CCCc1c(OCCCS(=O)(=O)c2ccc(C(=O)CCC(=O)O)cc2)ccc(C(C)=O)c1O [Example 29, 4-(3-(4-Acetyl-3-hydroxy-2-propylphenoxy)-propylsulfonyl)-gamma-oxobenzenebutanoic acid] | 78.9% | – | – | – | –
